System: m-IMCD3 cells
Experiment: Inhibition of PGE2-stimulated in vitro cyst formation in 3D culture of m-IMCD3 cells
Assay type: cell-based, mouse
Conditions: Mus musculus, mIMCD3, 144 h; 10 μM test compound; mean cyst area (%) compared to 100% for (DMSO + PGE2) and 0% for DMSO control; 100 nM PGE2; 6 days; read-out: % Cyst area after incubation with 10 μM test compound
Procedure: HEK 293 and MDCK cells (Public Health England, Cell Culture Collections) were maintained in Dulbecco's Modified Eagle's Medium (DMEM) supplemented with 10% (v/v) fetal bovine serum (FBS) (Seralab), 2 mM L-glutamine and 100 U/ml penicillin streptomycin cocktail (ThermoFisher); termed complete media. Clonal HEK 293 cell lines were maintained in complete media supplemented with 0.6 mg/mL G418 (Enzo Life Sciences). Mouse inner medullary collecting duct (m-IMCD3) cells [American Type Culture Collection (ATCC)] were maintained in media consisting of DMEM/Hams F-12 50/50 Mix (DMEM F12; Corning) supplemented with penicillin streptomycin cocktail (100 U/ml) and FBS (10% v/v) (DMEM F12-10% FBS).
The mouse Inner Medullary Collecting Duct cell line (m-IMCD3) spontaneously forms cystic spheroids in 3D culture with a Type 1 collagen/Matrigel extracellular matrix. This process can be stimulated with agents which raise intracellular cAMP, such as PGE2, and is used as an in vitro model for the formation of cystic structures in the kidneys of patients with ADPKD.
Rat Collagen I (Fisher Scientific) is prepared on ice by neutralising with 1M NaOH and diluting with a 2×volume of DMEM/F12+10% FBS for coating plate (coating mix) and a 2.2 volume of DMEM/F12+10% FBS for cell plating (plating mix). This is mixed 1:1.1 with ice cold Matrigel (Corning) for coating plates (coating mix), and 1:0.95 with Matrigel for cell plating (plating mix).
The assay is conducted in the wells of a 96-well plate culture dish using a total volume of 130 μl of collagen/Matrigel/DMEM F12-10% FBS suspension in growth media for each matrix plug per individual well. Initially, 30 μl of collagen/Matrigel/DMEM F12-10% FBS (coating mix) is added into the well of a 96 well plate and the collagen is set to a gel by incubating at 37° C. for at least 15 minutes. A second layer of 100 μl collagen/Matrigel suspension (plating mix) containing m-IMCD3 cells (2.75×10^6 m-IMCD3 cells per 96-well plate) is layered over the coating mix and the collagen/Matrigel/cell mix again set to a gel by incubating at 37° C. Cell cultures are maintained at 37° C. in an atmosphere of 5% CO2, 95% air.
Between 18 and 24h after plating, test compound(s) as DMSO stock solutions [0.1% (v/v) final DMSO concentration] and PGE2 (100 nM final concentration) in DMEM F12-10% FBS are added in quadruplicate wells per condition. Media, togetherwith the test compound and PGE2 are replenished after 2 or 3 days. After 6 days of culture z stack images of the wells are captured using the Nikon Eclipse Ti2-E microscope. Nikon General Analysis software is used to measure the following parameters in each well: the mean cyst area, the number of cysts, and the total cyst area.
PDE4 long form activators inhibited in vitro cyst formation in m-IMCD3 cells. Data are shown in FIG. 2 and Table 5 as mean cyst area (%), compared to 100% for (DMSO+PGE2) and 0% for DMSO control.

For `O=C(N[C@H]1CCOc2ccccc21)c1ccc2nc([C@H]3CCCNC3)sc2c1` (single isomer, unassigned) [Example 176], which activity at 10 µM is on record?
The activity at 10 µM was 1%.

For `Cc1ncccc1-c1nc2ccc(C(=O)NCc3ccc(F)cc3)cc2s1` [Example 2, N-(4-fluorobenzyl)-2-(2-methylpyridin-3-yl)benzo[d]thiazole-6-carboxamide], which activity at 10 µM is on record?
Its activity at 10 µM is -9%.

For `COc1ccc(CNC(=O)c2ccc3nc(-c4cccnc4C)sc3c2)cc1` [Example 3, N-(4-methoxybenzyl)-2-(2-methylpyridin-3-yl)benzo[d]thiazole-6-carboxamide], which activity at 10 µM is on record?
The activity at 10 µM was 23%.

`Cc1ncccc1-c1nc2ccc(C(=O)NCc3cccc(F)c3)cc2s1` [Example 4, N-(3-fluorobenzyl)-2-(2-methylpyridin-3-yl)benzo[d]thiazole-6-carboxamide] was tested. Which activity at 10 µM did it give?
Its activity at 10 µM is 6%.

With `Cc1ncccc1-c1nc2ccc(C(=O)N[C@H]3CCc4ccccc43)cc2s1` [Example 5, (S)-N-(2,3-dihydro-1H-inden-1-yl)-2-(2-methylpyridin-3-yl)benzo[d]thiazole-6-carboxamide] as the molecule, how does the activity at 10 µM read?
The activity at 10 µM was 1%.

For `CC(C)c1ccc(-c2nc3ccc(C(=O)N[C@H]4CCOc5ccccc54)cc3s2)cn1` [Example 28, (S)-N-(chroman-4-yl)-2-(6-isopropylpyridin-3-yl)benzo[d]thiazole-6-carboxamide], which activity at 10 µM is on record?
Its activity at 10 µM is 26%.

`CCc1ccc(-c2nc3ccc(C(=O)N[C@H]4CCOc5ccccc54)cc3s2)cn1` [Example 29, (S)-N-(chroman-4-yl)-2-(6-ethylpyridin-3-yl)benzo[d]thiazole-6-carboxamide] was tested. Which activity at 10 µM did it give?
The activity at 10 µM was 22%.

For `Cc1cncc(-c2nc3ccc(C(=O)NCc4ccccc4)cc3s2)c1` [Example 30, N-benzyl-2-(5-methylpyridin-3-yl)benzo[d]thiazole-6-carboxamide], which activity at 10 µM is on record?
The activity at 10 µM was 21%.

How did the activity at 10 µM turn out when `Cc1cncc(-c2nc3ccc(C(=O)NCc4cccc(Cl)c4)cc3s2)c1` [Example 34, N-[(3-chlorophenyl)methyl]-2-(5-methylpyridin-3-yl)benzo[d]thiazole-6-carboxamide] was run?
The activity at 10 µM was 26%.

`COc1cccc(CNC(=O)c2ccc3nc(-c4cncc(C)c4)sc3c2)c1` [Example 36, N-(3-methoxybenzyl)-2-(5-methylpyridin-3-yl)benzo[d]thiazole-6-carboxamide] was tested. Which activity at 10 µM did it give?
The activity at 10 µM was 30%.

`Cc1ccnc(C)c1-c1nc2ccc(C(=O)N[C@H]3CCOc4ccccc43)cc2s1` [Example 52, (S)-N-(chroman-4-yl)-2-(2,4-dimethylpyridin-3-yl)benzo[d]thiazole-6-carboxamide] was tested. Which activity at 10 µM did it give?
Its activity at 10 µM is 24%.

With `O=C(N[C@H]1CCOc2ccccc21)c1ccc2nc(N3CCOCC3)sc2c1` [Example 69, (S)-N-(chroman-4-yl)-2-morpholinobenzo[d]thiazole-6-carboxamide] as the molecule, how does the activity at 10 µM read?
Its activity at 10 µM is 20%.

With `COC1CCN(c2nc3ccc(C(=O)N[C@H]4CCOc5ccccc54)cc3s2)CC1` [Example 70, (S)-N-(chroman-4-yl)-2-(4-methoxypiperidin-1-yl)benzo[d]thiazole-6-carboxamide] as the molecule, how does the activity at 10 µM read?
Its activity at 10 µM is -18%.

With `CN1CCN(c2nc3ccc(C(=O)N[C@H]4CCOc5ccccc54)cc3s2)CC1` [Example 71, (S)-N-(chroman-4-yl)-2-(4-methylpiperazin-1-yl)benzo[d]thiazole-6-carboxamide] as the molecule, how does the activity at 10 µM read?
Its activity at 10 µM is -1%.

For `CCN1CCN(c2nc3ccc(C(=O)N[C@@H]4CCOc5ccccc54)cc3s2)CC1` [Example 73, (R)-N-(chroman-4-yl)-2-(4-ethylpiperazin-1-yl)benzo[d]thiazole-6-carboxamide], which activity at 10 µM is on record?
Its activity at 10 µM is 26%.

For `CC(C)N1CCN(c2nc3ccc(C(=O)N[C@H]4CCOc5ccccc54)cc3s2)CC1` [Example 74, (S)-N-(chroman-4-yl)-2-(4-isopropylpiperazin-1-yl)benzo[d]thiazole-6-carboxamide], which activity at 10 µM is on record?
The activity at 10 µM was 8%.

With `CC(C)(C)N1CCN(c2nc3ccc(C(=O)N[C@H]4CCOc5ccccc54)cc3s2)CC1` [Example 75, (S)-2-(4-(tert-butyl)piperazin-1-yl)-N-(chroman-4-yl)benzo[d]thiazole-6-carboxamide] as the molecule, how does the activity at 10 µM read?
Its activity at 10 µM is -1%.
